Assay results reported in patent US20260374766A1, “METHODS FOR TREATING CANCER” (Antares Therapeutics, Inc., priority 2022, published 2026).
Read-outs that look alike come from different tables or passages of the source.

Columns and labels:
p53 Y220C = p53 Y220C (Homo sapiens, UniProt P04637, Y220C); assay: Luciferase Reporter Assay (Luc), p53 response element, NClH1299 cells with inducible p53 Y220C; assay type: cell-based; settings: luciferase reporter, NClH1299 inducible p53 Y220C, 6 hour; for AC50: read-out: Luc P53 Y220C AC50
Summary of the method: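 Luminescence readout (One-Glo, 5 min shaking at RT, read at once) after 6 h compound exposure; cells pre-induced 24 h with 0.5 ug/mL doxycycline, 5,000/well.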

H1299 p53 Y220C = assay: Cell Proliferation Assay (CellTiter-Glo, CTG), H1299 p53 Y220C (NClH1299-inducible p53 Y220C); assay type: cell-based; settings: Homo sapiens, NCI-H1299, 120 h, CellTiter-Glo, 5 days
Summary of the method: (§1)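 Tet-One inducible p53 Y220C or R273H constructs were stably introduced into NCI-H1299 by lentiviral transduction; NUGC3 was used as is. Cells (250-500 per well) were exposed to compound for 5 days, then CellTiter-Glo was added for 10 min at room temperature and IC50 was calculated from luminescence.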

H1299 p53 R273H = assay: Cell Proliferation Assay (CellTiter-Glo, CTG), H1299 p53 R273H (NClH1299-inducible p53 R273H); assay type: cell-based; settings: Homo sapiens, NCI-H1299, 120 h, CellTiter-Glo, 5 days
Summary of the method: as §1

NUGC3 p53 Y220C = assay: Cell Proliferation Assay (CellTiter-Glo, CTG), NUGC3 p53 Y220C; assay type: cell-based; settings: Homo sapiens, NUGC-3, 120 h, CellTiter-Glo, 5 days
Summary of the method: as §1

[1] = biological target: T1, p53 Y220C mutant protein (amino acid residues 94-293) (Homo sapiens, UniProt P04637, Y220C); assay: Thermal Shift Assay (TSA), dTM; assay type: binding; settings: for ΔTm at 10 µM: 10 uM compound; for ΔTm at 100 µM: 100 uM compound
T1 construct: p53 Y220C mutant protein (amino acid residues 94-293)
Summary of the method: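 Recombinant p53 Y220C core (residues 94-293) at 5 μM was incubated with 10 μM or 100 μM compound for 3 hours at 20 °C in 20 mM HEPES pH7.4, 100 mM NaCl, 0.01% Pluronic F-127, 1% DMSO with 400-fold diluted Sypro Orange. Melting was followed from 30 °C to 50 °C at 0.03 °C/second, and TM came from a Boltzmann two-state fit.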

[2] = biological target: T1, p53 Y220C mutant protein (amino acid residues 94-293); assay: Surface Plasmon Resonance (SPR) assay, Kd_kinetic; assay type: binding; settings: SPR, p53 Y220C, read-out: SPR P53 Y220C KD kinetic
Summary of the method: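 Kinetic dissociation constants derived by 1:1 model fit of SPR data acquired at 16 or 20 °C, pH 7.5 Tris/NaCl running buffer with 1% DMSO.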

[3] = 10 uM tool compound as positive control
[4] = thermal shift, read-out: TSA P53 Y220C dTM (10 uM)
[5] = thermal shift, read-out: TSA P53 Y220C dTM (100 uM)
[6] = NClH1299-inducible p53 Y220C cells
[7] = NClH1299-inducible p53 R273H cells
[8] = p53 Y220C, read-out: TSA P53 Y220C dTM

Compound	Emax (p53 Y220C; [3]) [%]	AC50 (p53 Y220C) [nM]	IC50 (H1299 p53 Y220C; H1299 p53 Y220C) [nM]	IC50 (H1299 p53 R273H; H1299 p53 R273H) [nM]	IC50 (NUGC3 p53 Y220C; NUGC3 p53 Y220C) [nM]	ΔTm at 10 µM [1, 4] [°C]	ΔTm at 100 µM [1, 5] [°C]	Kd ([2]; kinetic KD) [nM]	AC50 (p53 Y220C; AC50) [nM]	Emax (p53 Y220C; Emax) [%]	IC50 (H1299 p53 Y220C; [6]) [nM]	IC50 (H1299 p53 R273H; [7]) [nM]	IC50 (NUGC3 p53 Y220C; NUGC3 cells) [nM]	ΔTm at 10 µM [1, 8] [°C]	Kd [2] [nM]	ΔTm at 100 µM [1, 8] [°C]
CNC(=O)c1ccc(OC)c(NCC#Cc2nc3c(N[C@@H]4CCNC[C@@H]4F)cccn3c2SC(F)(F)F)c1 [Example 218]	80 to 90	< 750	< 750	≥ 10000	< 750	≥ 10	≥ 10	< 10								
COc1cc(S(C)(=O)=O)ccc1NCC#Cc1nc2c(NC3CCN(CC(C)(C)O)CC3)cccn2c1CC(F)(F)F [Example 11, 1-{4-[(2-{3-[(4-methanesulfonyl-2-methoxyphenyl)amino]prop-1-yn-1-yl}-3-(2,2,2-trifluoroethyl)imidazo [1,2-a]pyridin-8-yl)amino]piperidin-1-yl}-2-methylpropan-2-ol]	70 to 80	1500 to 3000	750 to 1500	5000 to 8000	1500 to 3000		≥ 10	10 to 100								
COc1cc(S(C)(=O)=O)ccc1NCC#Cc1cc2c(N[C@@H]3CN(C)C[C@@H]3F)cccn2c1SC(F)(F)F [Example 339]									< 750	80 to 90	< 750	5000 to 8000	< 750	≥ 10	< 10	
CCNC(=O)c1ccc(OC)c(NCC#Cc2nn3c(N[C@@H]4CCN(C)C[C@@H]4F)cccc3c2SC(F)F)c1 [Example 318]									< 750	80 to 90	< 750	5000 to 8000	< 750	≥ 10	< 10	
CNC(=O)c1ccc(NCC#Cc2nc3c(N[C@@H]4CCN(C)C[C@@H]4F)cccn3c2SC(F)(F)F)c(OC(F)F)c1 [Example 105, 3-(difluoromethoxy)-4-{[3-(8-{[(3S,4R)-3-fluoro-1-methylpiperidin-4-yl]amino}-3-[(trifluoromethyl)sulfanyl]imidazo[1,2-a]pyridin-2-yl)prop-2-yn-1-yl]amino}-N-methylbenzamide]	80 to 90	< 750	< 750	8000 to 10000	< 750	≥ 10	≥ 10	< 10								
CNC(=O)c1cccc(NCC#Cc2nc3c(N[C@@H]4CCN(C)C[C@@H]4F)cccn3c2SC(F)(F)F)n1 [Example 162]	80 to 90	< 750	< 750	≥ 10000	< 750	≥ 10	≥ 10	< 10								
COc1cc(S(=O)(=O)C(C)C)ccc1NCC#Cc1nc2c(N[C@@H]3CCN(C)C[C@@H]3F)cccn2c1CC(F)(F)F [Example 77, (3S,4R)-3-fluoro-N-[2-(3-{[2-methoxy-4-(propane-2-sulfonyl)phenyl]amino}prop-1-yn-1-yl)-3-(2,2,2-trifluoroethyl)imidazo[1,2-a]pyridin-8-yl]-1-methylpiperidin-4-amine]	70 to 80	< 750	< 750	5000 to 8000	< 750		≥ 10	< 10								
CNC(=O)c1ccc(OC)c(NCC#Cc2nn3c(N[C@@H]4C[C@H]5CC[C@@H]([C@@H]4F)N5C)cccc3c2SC(F)(F)F)c1 [Example 284]									< 750	80 to 90	< 750	< 5000	< 750	≥ 10	< 10	≥ 10
COc1cc2c[nH]nc2cc1NCC#Cc1nc2c(N[C@@H]3CCN(C)C[C@@H]3F)cccn2c1SC(F)(F)F [Example 308, N-[3-(8-{[(3S,4R)-3-fluoro-1-methylpiperidin-4-yl]amino}-3-[(trifluoromethyl)sulfanyl]imidazo[1,2-a]pyridin-2-yl)prop-2-yn-1-yl]-5-methoxy-2H-indazol-6-amine]									< 750	80 to 90	< 750	< 5000	< 750	≥ 10	< 10	≥ 10
